Results reported in PubChem BioAssay AID1745844 (Carcinogenic Potency Database (CPDB), 2022).
Active and inactive are the calls of the source. No rule for the calls is given here.

System: rodent lifetime carcinogenesis bioassay, tumor incidence TD50
Assay: chronic cancer bioassays in animals – CPDB, compiled studies (AID 1745844)

In the case of CCN(Cc1cccc(S(=O)(=O)O)c1)c1ccc(C(=C2C=CC(=[N+](CC)Cc3cccc(S(=O)(=O)[O-])c3)C=C2)c2ccccc2)cc1, the TD50 (mouse, strain C3HeB/FeJ, females, in feed, site: any site (literature study), lesion: malignant tumor, dosed 104 weeks, study length 104 weeks) is reported as 18400 mg/kg/day (inactive), the carcinogen call (mouse, strain C3HeB/FeJ, females, in feed, site: any site (literature study), lesion: several types, types named in the paper, dosed 104 weeks, study length 104 weeks) is reported as “negative (inactive)” and the TD50 (mouse, strain C3HeB/FeJ, females, in feed, site: liver, lesion: several types, types named in the paper, dosed 104 weeks, study length 104 weeks) is reported as 146000 mg/kg/day (inactive). The TD50 (mouse, strain C3HeB/FeJ, females, in feed, site: lung, lesion: adenoma, dosed 104 weeks, study length 104 weeks) was 146000 mg/kg/day (inactive), the carcinogen call (mouse, strain C3HeB/FeJ, males, in feed, site: any site (literature study), lesion: malignant tumor, dosed 104 weeks, study length 104 weeks) was “negative (inactive)” and the TD50 (mouse, strain C3HeB/FeJ, males, in feed, site: any site (literature study), lesion: several types, types named in the paper, dosed 104 weeks, study length 104 weeks) was 20800 mg/kg/day (inactive). For the same compound, the TD50 (mouse, strain C3HeB/FeJ, males, in feed, site: liver, lesion: several types, types named in the paper, dosed 104 weeks, study length 104 weeks) was 26100 mg/kg/day (inactive), the TD50 (mouse, strain C3HeB/FeJ, males, in feed, site: lung, lesion: several types, types named in the paper, dosed 104 weeks, study length 104 weeks) was 59200 mg/kg/day and the carcinogen call (rat, strain Osborne-Mendel, females, in feed, site: any site (literature study), lesion: malignant tumor, dosed 104 weeks, study length 104 weeks) was “negative (inactive)”. The TD50 (rat, strain Osborne-Mendel, females, in feed, site: any site (literature study), lesion: several types, types named in the paper, dosed 104 weeks, study length 104 weeks) was 97500 mg/kg/day, the TD50 (rat, strain Osborne-Mendel, females, in feed, site: liver, lesion: several types, types named in the paper, dosed 104 weeks, study length 104 weeks) was 13800 mg/kg/day and the carcinogen call (rat, strain Osborne-Mendel, males, in feed, site: any site (literature study), lesion: malignant tumor, dosed 104 weeks, study length 104 weeks) was “negative (inactive)”. The TD50 (rat, strain Osborne-Mendel, males, in feed, site: any site (literature study), lesion: several types, types named in the paper, dosed 104 weeks, study length 104 weeks) was 11400 mg/kg/day, the TD50 (rat, strain Osborne-Mendel, males, in feed, site: liver, lesion: several types, types named in the paper, dosed 104 weeks, study length 104 weeks) was 5980 mg/kg/day and the TD50 (rat, strain Wistar, both sexes, in feed, site: abdomen, lesion: malignant lymphoma, dosed 93 weeks, study length 93 weeks) was 8370 mg/kg/day. It also gave a TD50 (rat, strain Wistar, both sexes, in feed, site: mediastinum, lesion: malignant lymphoma, dosed 93 weeks, study length 93 weeks) of 8370 mg/kg/day and a TD50 (rat, strain Wistar, both sexes, in feed, site: several sites, sites named in the paper, lesion: malignant lymphoma, dosed 93 weeks, study length 93 weeks) of 3920 mg/kg/day.
In the case of O=NN(CCO)CCO, the carcinogen call (rat, strain F344/DuCrj, males, in drinking water, site: liver, lesion: one or several types, types not named, dosed 40 weeks, study length 78 weeks) is reported as “negative (inactive)”, the TD50 (rat, strain Fischer 344, females, in drinking water, site: esophagus, lesion: papilloma, dosed 55 weeks, study length 105 weeks) is reported as 2050 mg/kg/day and the TD50 (rat, strain Fischer 344, females, in drinking water, site: kidney, lesion: one or several types, types not named, dosed 55 weeks, study length 105 weeks) is reported as 327 mg/kg/day. It also gave a TD50 (rat, strain Fischer 344, females, in drinking water, site: kidney, lesion: several types, types named in the paper, dosed 75 weeks, study length 130 weeks) of 42.2 mg/kg/day, a TD50 (rat, strain Fischer 344, females, in drinking water, site: liver, lesion: cholangioadenoma/carcinoma, dosed 75 weeks, study length 130 weeks) of 56.8 mg/kg/day and a TD50 (rat, strain Fischer 344, females, in drinking water, site: liver, lesion: cholangiocarcinoma, dosed 55 weeks, study length 105 weeks) of 197 mg/kg/day. The TD50 (rat, strain Fischer 344, females, in drinking water, site: liver, lesion: hemangiosarcoma, dosed 50 weeks, study length 120 weeks) was 45.4 mg/kg/day, the TD50 (rat, strain Fischer 344, females, in drinking water, site: liver, lesion: hepatocellular carcinoma, dosed 50 weeks, study length 120 weeks) was 1.94 mg/kg/day and the TD50 (rat, strain Fischer 344, females, in drinking water, site: liver, lesion: hepatocellular carcinoma, dosed 55 weeks, study length 105 weeks) was 3.27 mg/kg/day. The TD50 (rat, strain Fischer 344, females, in drinking water, site: liver, lesion: hepatocellular carcinoma, dosed 75 weeks, study length 130 weeks) was 4.05 mg/kg/day, the TD50 (rat, strain Fischer 344, females, in drinking water, site: liver, lesion: neoplastic nodule, dosed 75 weeks, study length 130 weeks) was 2.93 mg/kg/day and the TD50 (rat, strain Fischer 344, females, in drinking water, site: liver, lesion: several types, types named in the paper, dosed 75 weeks, study length 130 weeks) was 1.9 mg/kg/day. The TD50 (rat, strain Fischer 344, females, in drinking water, site: nasal cavity, lesion: adenocarcinoma, dosed 55 weeks, study length 105 weeks) was 44.1 mg/kg/day, the TD50 (rat, strain Fischer 344, females, in drinking water, site: nasal cavity, lesion: olfactory carcinoma, dosed 55 weeks, study length 105 weeks) was 128 mg/kg/day and the TD50 (rat, strain Fischer 344, females, in drinking water, site: nasal cavity, lesion: squamous-cell carcinoma, dosed 55 weeks, study length 105 weeks) was 4320 mg/kg/day. For the same compound, the TD50 (rat, strain Fischer 344, males, in drinking water, site: esophagus, lesion: carcinoma, dosed 48 weeks, study length 95 weeks) was 432 mg/kg/day, the TD50 (rat, strain Fischer 344, males, in drinking water, site: esophagus, lesion: papilloma, dosed 48 weeks, study length 95 weeks) was 207 mg/kg/day and the TD50 (rat, strain Fischer 344, males, in drinking water, site: kidney, lesion: one or several types, types not named, dosed 48 weeks, study length 95 weeks) was 99.7 mg/kg/day. For the same compound, the TD50 (rat, strain Fischer 344, males, in drinking water, site: kidney, lesion: several types, types named in the paper, dosed 75 weeks, study length 125 weeks) was 19 mg/kg/day, the TD50 (rat, strain Fischer 344, males, in drinking water, site: liver, lesion: cholangioadenoma/carcinoma, dosed 75 weeks, study length 125 weeks) was 38.6 mg/kg/day and the TD50 (rat, strain Fischer 344, males, in drinking water, site: liver, lesion: cholangiocarcinoma, dosed 48 weeks, study length 95 weeks) was 23.9 mg/kg/day. It also gave a TD50 (rat, strain Fischer 344, males, in drinking water, site: liver, lesion: hepatocellular carcinoma, dosed 48 weeks, study length 95 weeks) of 2.77 mg/kg/day, a TD50 (rat, strain Fischer 344, males, in drinking water, site: liver, lesion: hepatocellular carcinoma, dosed 75 weeks, study length 125 weeks) of 9.03 mg/kg/day and a TD50 (rat, strain Fischer 344, males, in drinking water, site: liver, lesion: neoplastic nodule, dosed 75 weeks, study length 125 weeks) of 3.93 mg/kg/day. It also gave a TD50 (rat, strain Fischer 344, males, in drinking water, site: liver, lesion: several types, types named in the paper, dosed 75 weeks, study length 125 weeks) of 2.84 mg/kg/day, a TD50 (rat, strain Fischer 344, males, in drinking water, site: nasal cavity, lesion: adenocarcinoma, dosed 48 weeks, study length 95 weeks) of 15.5 mg/kg/day and a TD50 (rat, strain Fischer 344, males, in drinking water, site: nasal cavity, lesion: olfactory carcinoma, dosed 48 weeks, study length 95 weeks) of 50.4 mg/kg/day. For the same compound, the TD50 (rat, strain Fischer 344, males, in drinking water, site: nasal cavity, lesion: squamous-cell carcinoma, dosed 48 weeks, study length 95 weeks) was 280 mg/kg/day, the TD50 (rat, strain Sprague-Dawley, males, in drinking water, site: all sites, lesion: one or several types, types not named, dosed 162 weeks, study length 167 weeks) was 55.6 mg/kg/day and the TD50 (rat, strain Sprague-Dawley, males, in drinking water, site: any site (literature study), lesion: benign tumor, dosed 162 weeks, study length 167 weeks) was 7.93 mg/kg/day. For the same compound, the TD50 (rat, strain Sprague-Dawley, males, in drinking water, site: any site (literature study), lesion: malignant tumor, dosed 162 weeks, study length 167 weeks) was 23.5 mg/kg/day, the TD50 (rat, strain Sprague-Dawley, males, in drinking water, site: gastrointestinal tract, lesion: several types, types named in the paper, dosed 162 weeks, study length 167 weeks) was 143 mg/kg/day and the TD50 (rat, strain Sprague-Dawley, males, in drinking water, site: liver, lesion: cholangiocarcinoma, ductular, dosed 118 weeks, study length 147 weeks) was 10700 mg/kg/day. The TD50 (rat, strain Sprague-Dawley, males, in drinking water, site: liver, lesion: hemangioendothelioma, benign, dosed 162 weeks, study length 167 weeks) was 126 mg/kg/day, the TD50 (rat, strain Sprague-Dawley, males, in drinking water, site: liver, lesion: hepatocellular adenocarcinoma, dosed 118 weeks, study length 147 weeks) was 9.51 mg/kg/day and the TD50 (rat, strain Sprague-Dawley, males, in drinking water, site: liver, lesion: hepatocellular adenoma, dosed 162 weeks, study length 167 weeks) was 347 mg/kg/day. For the same compound, the TD50 (rat, strain Sprague-Dawley, males, in drinking water, site: liver, lesion: hepatocellular carcinoma, dosed 162 weeks, study length 167 weeks) was 70.4 mg/kg/day, the TD50 (rat, strain Sprague-Dawley, males, in drinking water, site: liver, lesion: several types, types named in the paper, dosed 118 weeks, study length 147 weeks) was 8.23 mg/kg/day and the TD50 (rat, strain Sprague-Dawley, males, in drinking water, site: liver, lesion: several types, types named in the paper, dosed 162 weeks, study length 167 weeks) was 38.4 mg/kg/day. It also gave a TD50 (rat, strain Sprague-Dawley, males, in drinking water, site: nasal cavity, lesion: olfactory neuroepithelioma, dosed 118 weeks, study length 147 weeks) of 679 mg/kg/day, a TD50 (rat, strain Sprague-Dawley, males, in drinking water, site: nasal cavity, lesion: several types, types named in the paper, dosed 118 weeks, study length 147 weeks) of 168 mg/kg/day and a TD50 (rat, strain Sprague-Dawley, males, in drinking water, site: nasal cavity, lesion: squamous-cell carcinoma, dosed 118 weeks, study length 147 weeks) of 954 mg/kg/day. For the same compound, the TD50 (rat, strain Sprague-Dawley, males, in drinking water, site: nervous system, lesion: one or several types, types not named, dosed 162 weeks, study length 167 weeks) was 42.5 mg/kg/day.
